Like-named read-outs stand apart in the source and are kept apart here.
Experiments:
group III mGlu receptors [1] = settings: cited from earlier work
mGlu4 = biological target: T1, mGlu4 (Rattus norvegicus, UniProt P31423); type: cell-based
T1 construct: expressed in transfected cells; host or cells: HEK293 (transient, electroporation)
Excerpt: (§1) These receptors were transiently expressed in HEK-293 cells as previously described. Since group III mGlu receptors are not naturally coupled to phospholipase-C but rather inhibit adenylyl cyclase, receptors were co-transfected with a chimeric G-protein alpha subunit which is recognized by these receptors but effectively activates the phospholipase-C pathway. Thus, the functional assay consisted in measuring the total inositol phosphate production resulting from receptor activation (ref. 10, 11).
(§2) Cell culture and transfection. Pharmacological experiments were carried out using HEK293 cells. Cells were cultured in Dulbecco's modified Eagle's medium supplemented with 10% foetal calf serum (FCS) and antibiotics (Penicillin and Streptomycin, 100 U/mL final).
(§3) Cells were transiently transfected with rat clones of group-III mGlu receptors (mGlu4, mGlu6, mGlu7 and mGlu8) by electroporation as described elsewhere (ref. 6) and plated in 96-well microplates. The high affinity glutamate transporter EAAC1 was also co-transfected with the receptor in order to avoid any influence of glutamate released by the cells in the assay medium. Since group-III mGluRs activates naturally Gi/o-proteins which modulate the adenylyl-cyclase pathway, these receptors were co-transfected with a chimeric G-protein which is recognized by these receptors but couples to the phospholipase-C pathway, thus leading to inositol phosphate (IP) production following receptor activation (ref. 7). Receptor activity was then determined by measurement of the IP production.
(§4) Functional assay. Inositol phosphate determination experiments in 96-well microplates were performed as already described (ref. 15). Briefly, 6 h following transfection, cell medium was removed and replaced by fresh medium devoid of glutamate, not complemented with FCS, and that contained ^3H-myoinositol. Cells were incubated overnight in this medium. The following day, cells were rinsed and ambient glutamate degraded by incubation in presence of GPT. Cells were stimulated by agonist for 30 min then the medium was removed and cells incubated for 1 h with cold 0.1 M formic acid which induced cell lysis. The ^3H-IP produced following receptor stimulation were recovered by ion exchange chromatography using a Dowex resin (Biorad). […] All points are realized in triplicate.

mGlu8 = biological target: T2, mGlu8 (Rattus norvegicus, UniProt P70579); type: cell-based
T2 construct: expressed in transfected cells; host or cells: HEK293 (transient, electroporation)
Excerpt: as §1, §2, §3, §4

mGlu6 = biological target: T3, mGlu6 (Rattus norvegicus, UniProt P35349); test: Inositol phosphate production in transfected HEK293 cells, mGlu6; type: cell-based
T3 construct: expressed in transfected cells; host or cells: HEK293 (transient, electroporation)
Excerpt: as §1, §2
(§5) Cells were transiently transfected with rat clones of group-III mGlu receptors (mGlu4, mGlu6, mGlu7 and mGlu8) by electroporation as described elsewhere (ref. 6) and plated in 96-well microplates. The high affinity glutamate transporter EAAC1 was also co-transfected with the receptor in order to avoid any influence of glutamate released by the cells in the assay medium. […] Receptor activity was then determined by measurement of the IP production. […]

mGlu7 = biological target: T4, mGlu7 (Rattus norvegicus, UniProt P35400); test: Inositol phosphate production in transfected HEK293 cells, mGlu7; type: cell-based
T4 construct: expressed in transfected cells; host or cells: HEK293 (transient, electroporation)
Excerpt: as §1, §2, §5

[2] = tested on: group I and II mGlu receptors; test: Selectivity versus group I and II mGlu receptors; type: cell-based
mGlu1/5 receptors = test: Effect at mGlu1/5 receptors; type: cell-based
[3] = 31P NMR chemical shift versus pH, 27° C.
Method: In order to compare them, the pKa values of these amino acids were evaluated. […] Indicated pKa3 values were calculated by non-linear regression analysis using GraphPad Prism program. In addition, the ^31P NMR chemical shifts of 1 and 4 are sensitive to the ionization state, thus titration curves may be obtained from their pH dependence (ref. 7-9) (FIG. 1B). […] The pKa1 and pKa2 values are too close to be determined from the titration curves, however pKa3 and pKa4 are easily measured. […]
Each ^31P NMR spectrum was acquired at 27° C. with external H3PO4 (95%) reference at 0 ppm (sealed capillary). […] A total of 27 spectra (1) or 23 spectra (4) were recorded over a pH range of 0.50-12.50 (1) or 0.51-12.56 (4). The P NMR chemical shifts of the dianionic and monoanionic forms of the (thio)phosphonate groups were plotted against measured pH. All pKa values were calculated by non-linear regression analysis using the GraphPad Prism program (GraphPad Software Inc., San Diego Calif.) and the equation pH=pKa−log[(δa−δ)/(δ−δb)] where δ is the ^31P NMR chemical shift at varying pH, δa and δb the ^31P NMR chemical shifts with titrating group in fully acidic or basic form respectively.

mGlu4R = mGlu4R (Homo sapiens, UniProt Q14833); settings: read-out: EC50 as mGlu4R agonist; background statement; cited from earlier work
mGlu2 receptor = mGlu2 receptor (Homo sapiens, UniProt Q14416); settings: described in the literature; cited from earlier work
group III mGlu receptors [4] = test: Agonist activity across all group III mGlu receptor subtypes (summary); type: cell-based, rat
Excerpt: as §1, §3
Functional assay. […]

[5] = agonist activity, IP production, HEK-293, mean ± SEM (n)

T4 sequence (P35400 35-915): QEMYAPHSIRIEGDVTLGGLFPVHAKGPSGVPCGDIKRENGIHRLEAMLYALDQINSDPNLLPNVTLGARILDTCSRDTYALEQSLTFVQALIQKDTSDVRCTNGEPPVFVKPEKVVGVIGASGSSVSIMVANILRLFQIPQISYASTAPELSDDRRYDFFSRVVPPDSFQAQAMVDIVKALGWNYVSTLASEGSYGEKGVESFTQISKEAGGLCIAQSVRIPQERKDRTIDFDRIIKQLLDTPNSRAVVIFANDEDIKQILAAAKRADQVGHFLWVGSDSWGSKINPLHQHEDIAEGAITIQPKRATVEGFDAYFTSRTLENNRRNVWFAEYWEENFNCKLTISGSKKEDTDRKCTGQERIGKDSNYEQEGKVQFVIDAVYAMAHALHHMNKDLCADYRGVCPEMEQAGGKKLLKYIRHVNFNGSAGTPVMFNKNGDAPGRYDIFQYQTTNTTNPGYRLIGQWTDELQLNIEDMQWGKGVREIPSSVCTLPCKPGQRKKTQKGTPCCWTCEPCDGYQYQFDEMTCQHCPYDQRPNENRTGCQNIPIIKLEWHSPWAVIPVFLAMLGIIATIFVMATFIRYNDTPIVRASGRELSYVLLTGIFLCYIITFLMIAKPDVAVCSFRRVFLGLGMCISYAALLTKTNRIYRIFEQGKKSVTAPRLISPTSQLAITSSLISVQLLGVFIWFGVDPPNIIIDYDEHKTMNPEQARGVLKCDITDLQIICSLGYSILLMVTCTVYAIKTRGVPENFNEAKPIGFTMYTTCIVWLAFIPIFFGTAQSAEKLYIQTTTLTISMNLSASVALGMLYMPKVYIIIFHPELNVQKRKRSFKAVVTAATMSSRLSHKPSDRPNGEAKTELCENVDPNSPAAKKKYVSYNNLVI
T3 sequence (P35349 24-871): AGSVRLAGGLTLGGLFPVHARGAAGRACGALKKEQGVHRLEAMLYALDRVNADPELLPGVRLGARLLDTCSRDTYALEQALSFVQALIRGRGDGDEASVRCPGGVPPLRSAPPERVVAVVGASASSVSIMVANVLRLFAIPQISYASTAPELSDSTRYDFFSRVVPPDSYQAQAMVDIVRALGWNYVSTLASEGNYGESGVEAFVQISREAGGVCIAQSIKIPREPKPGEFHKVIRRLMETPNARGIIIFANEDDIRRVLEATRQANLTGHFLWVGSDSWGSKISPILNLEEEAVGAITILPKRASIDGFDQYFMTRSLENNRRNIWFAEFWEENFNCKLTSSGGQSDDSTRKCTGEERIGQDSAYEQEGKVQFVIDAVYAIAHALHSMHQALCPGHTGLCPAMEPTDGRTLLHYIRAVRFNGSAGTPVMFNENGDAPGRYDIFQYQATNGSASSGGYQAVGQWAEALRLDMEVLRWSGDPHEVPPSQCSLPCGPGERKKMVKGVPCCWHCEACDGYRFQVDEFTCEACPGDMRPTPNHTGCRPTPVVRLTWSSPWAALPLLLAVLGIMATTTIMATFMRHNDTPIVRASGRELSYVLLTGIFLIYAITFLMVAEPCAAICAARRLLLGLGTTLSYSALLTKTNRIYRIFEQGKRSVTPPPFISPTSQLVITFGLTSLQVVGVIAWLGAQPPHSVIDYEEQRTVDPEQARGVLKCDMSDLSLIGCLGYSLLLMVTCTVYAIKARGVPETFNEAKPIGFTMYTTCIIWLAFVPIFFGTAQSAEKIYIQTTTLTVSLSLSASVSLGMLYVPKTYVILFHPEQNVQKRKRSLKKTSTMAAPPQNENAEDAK
T1 sequence (P31423 33-912): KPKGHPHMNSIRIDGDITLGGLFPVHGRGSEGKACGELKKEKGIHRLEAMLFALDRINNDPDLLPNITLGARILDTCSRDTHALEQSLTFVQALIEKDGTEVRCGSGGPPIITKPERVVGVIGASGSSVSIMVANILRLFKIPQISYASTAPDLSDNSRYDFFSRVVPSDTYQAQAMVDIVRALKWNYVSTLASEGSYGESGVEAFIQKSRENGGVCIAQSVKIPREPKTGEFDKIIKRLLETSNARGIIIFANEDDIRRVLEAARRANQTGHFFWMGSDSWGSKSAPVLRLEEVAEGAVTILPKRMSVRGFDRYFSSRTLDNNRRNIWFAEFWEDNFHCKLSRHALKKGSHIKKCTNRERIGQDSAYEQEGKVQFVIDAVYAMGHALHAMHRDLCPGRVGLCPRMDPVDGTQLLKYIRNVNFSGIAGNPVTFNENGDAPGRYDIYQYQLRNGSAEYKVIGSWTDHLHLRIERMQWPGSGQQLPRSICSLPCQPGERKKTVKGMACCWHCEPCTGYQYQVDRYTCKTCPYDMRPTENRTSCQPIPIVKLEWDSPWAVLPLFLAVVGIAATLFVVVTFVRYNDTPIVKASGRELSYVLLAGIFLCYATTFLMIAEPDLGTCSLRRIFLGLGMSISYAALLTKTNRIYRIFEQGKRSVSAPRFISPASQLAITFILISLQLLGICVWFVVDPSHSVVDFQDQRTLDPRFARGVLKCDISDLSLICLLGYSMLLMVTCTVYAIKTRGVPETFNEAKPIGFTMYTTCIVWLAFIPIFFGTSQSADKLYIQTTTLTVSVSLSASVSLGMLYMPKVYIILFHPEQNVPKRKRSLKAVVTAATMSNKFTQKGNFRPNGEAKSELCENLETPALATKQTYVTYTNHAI
T2 sequence (P70579 34-908): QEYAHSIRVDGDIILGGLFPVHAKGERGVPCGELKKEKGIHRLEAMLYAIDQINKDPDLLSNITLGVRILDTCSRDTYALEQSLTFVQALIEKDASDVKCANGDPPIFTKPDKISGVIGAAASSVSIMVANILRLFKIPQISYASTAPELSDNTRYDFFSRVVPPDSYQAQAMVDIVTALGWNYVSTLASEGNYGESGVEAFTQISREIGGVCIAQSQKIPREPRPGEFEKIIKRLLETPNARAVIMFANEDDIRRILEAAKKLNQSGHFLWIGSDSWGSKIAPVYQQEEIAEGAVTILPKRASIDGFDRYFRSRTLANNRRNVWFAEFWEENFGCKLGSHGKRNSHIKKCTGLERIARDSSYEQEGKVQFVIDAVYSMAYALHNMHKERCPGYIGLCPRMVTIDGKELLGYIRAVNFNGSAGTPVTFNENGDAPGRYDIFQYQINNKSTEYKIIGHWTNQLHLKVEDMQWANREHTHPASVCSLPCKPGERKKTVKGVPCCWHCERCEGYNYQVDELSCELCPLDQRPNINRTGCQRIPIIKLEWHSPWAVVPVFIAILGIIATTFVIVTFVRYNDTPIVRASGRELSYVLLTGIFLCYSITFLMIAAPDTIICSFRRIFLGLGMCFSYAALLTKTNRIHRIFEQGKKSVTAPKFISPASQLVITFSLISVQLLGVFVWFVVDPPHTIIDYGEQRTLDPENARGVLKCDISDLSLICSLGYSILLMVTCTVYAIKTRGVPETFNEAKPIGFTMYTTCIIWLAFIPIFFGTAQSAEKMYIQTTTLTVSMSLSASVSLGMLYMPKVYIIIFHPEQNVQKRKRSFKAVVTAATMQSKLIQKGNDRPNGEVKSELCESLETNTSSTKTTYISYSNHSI
mGlu4R, sequence (Q14833 33-912): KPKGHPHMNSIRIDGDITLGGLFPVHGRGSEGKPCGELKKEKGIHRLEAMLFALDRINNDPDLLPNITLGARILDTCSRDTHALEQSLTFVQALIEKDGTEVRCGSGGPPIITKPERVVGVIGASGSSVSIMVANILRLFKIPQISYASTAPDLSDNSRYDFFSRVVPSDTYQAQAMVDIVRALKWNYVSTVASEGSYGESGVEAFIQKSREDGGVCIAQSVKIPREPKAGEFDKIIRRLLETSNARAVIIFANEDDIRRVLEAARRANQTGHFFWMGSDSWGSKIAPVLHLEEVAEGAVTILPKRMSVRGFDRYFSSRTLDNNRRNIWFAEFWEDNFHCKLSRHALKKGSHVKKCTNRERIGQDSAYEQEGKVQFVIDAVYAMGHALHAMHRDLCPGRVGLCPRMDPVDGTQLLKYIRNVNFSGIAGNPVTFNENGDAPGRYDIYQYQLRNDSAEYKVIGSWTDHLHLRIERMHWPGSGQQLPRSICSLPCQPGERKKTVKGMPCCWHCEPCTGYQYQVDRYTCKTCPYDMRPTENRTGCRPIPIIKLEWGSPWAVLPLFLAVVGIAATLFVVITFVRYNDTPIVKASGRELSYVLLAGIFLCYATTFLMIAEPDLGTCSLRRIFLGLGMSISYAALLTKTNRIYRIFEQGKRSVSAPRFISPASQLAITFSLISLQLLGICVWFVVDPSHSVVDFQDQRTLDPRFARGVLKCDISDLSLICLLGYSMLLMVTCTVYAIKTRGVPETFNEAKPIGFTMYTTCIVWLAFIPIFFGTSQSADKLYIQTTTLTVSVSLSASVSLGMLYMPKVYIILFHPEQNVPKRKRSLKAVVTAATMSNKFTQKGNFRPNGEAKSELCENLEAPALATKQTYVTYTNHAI

Compound	activity compared to glutamate at group III mGlu receptors (group III mGlu receptors [1])	EC50 (mGlu4; [5])	EC50 (mGlu8; [5])	EC50 (mGlu6; [5])	EC50 (mGlu7; [5])	agonist or antagonist activity on group I and II mGlu receptors ([2]; at 100 μM)	effect at mGlu1/5 receptors (mGlu1/5 receptors)	experimental pKa3 ([3]; second acidity of (thio)phosphonate)	experimental pKa4 ([3]; α-ammonium group)	EC50 (mGlu4R)	mGlu2 receptor antagonist activity (mGlu2 receptor)	EC50 (mGlu4)	EC50 (mGlu8)	EC50 (mGlu6)	EC50 (mGlu7)	selectivity among group III mGlu receptor subtypes (group III mGlu receptors [4])	activity relative to L-AP4 (1) (group III mGlu receptors [4]; on all subtypes, Student's paired T test P<0.05)	agonist or antagonist activity on group I and II mGlu receptors [2]
N[C@@H](CCS(=O)(=O)O)C(=O)O [L-homocysteic acid]	no enhanced activity compared to glutamate	–	–	–	–	–	–	–	–	–	–	–	–	–	–	–	–	–
N[C@@H](CCP(=O)(O)O)C(=O)O [L-AP4, L(+)-2-Amino-4-phosphonobutyric Acid]	–	80 ± 17 nM	128 ± 19 nM	2080 ± 380 nM	440000 ± 120000 nM	no agonist or antagonist activity	no effect	6.88	9.90	320 nM	modest mGlu2 receptor antagonist	–	–	–	–	–	–	–
N[C@@H](CCP(O)(O)=S)C(=O)O [L-thioAP4, L(+)-2-Amino-4-thiophosphonobutyric acid]	–	–	–	–	–	–	no effect	–	–	–	–	39 nM	54 nM	730 nM	197000 nM	not subtype selective	about two fold	no agonist or antagonist activity

From US20100137258A1, “THIOPHOSPHI(O)NIC ACID DERIVATIVES AND THEIR THERAPEUTICAL APPLICATIONS” (priority 2007, published 2010)
